Results: ChEMBL document CHEMBL5725974, “ASK1 inhibitor compounds and uses thereof” (2018)

Biological target: T1, Mitogen-activated protein kinase kinase kinase 5 (Homo sapiens, UniProt Q99683)
T1 sequence (Q99683 whole entry): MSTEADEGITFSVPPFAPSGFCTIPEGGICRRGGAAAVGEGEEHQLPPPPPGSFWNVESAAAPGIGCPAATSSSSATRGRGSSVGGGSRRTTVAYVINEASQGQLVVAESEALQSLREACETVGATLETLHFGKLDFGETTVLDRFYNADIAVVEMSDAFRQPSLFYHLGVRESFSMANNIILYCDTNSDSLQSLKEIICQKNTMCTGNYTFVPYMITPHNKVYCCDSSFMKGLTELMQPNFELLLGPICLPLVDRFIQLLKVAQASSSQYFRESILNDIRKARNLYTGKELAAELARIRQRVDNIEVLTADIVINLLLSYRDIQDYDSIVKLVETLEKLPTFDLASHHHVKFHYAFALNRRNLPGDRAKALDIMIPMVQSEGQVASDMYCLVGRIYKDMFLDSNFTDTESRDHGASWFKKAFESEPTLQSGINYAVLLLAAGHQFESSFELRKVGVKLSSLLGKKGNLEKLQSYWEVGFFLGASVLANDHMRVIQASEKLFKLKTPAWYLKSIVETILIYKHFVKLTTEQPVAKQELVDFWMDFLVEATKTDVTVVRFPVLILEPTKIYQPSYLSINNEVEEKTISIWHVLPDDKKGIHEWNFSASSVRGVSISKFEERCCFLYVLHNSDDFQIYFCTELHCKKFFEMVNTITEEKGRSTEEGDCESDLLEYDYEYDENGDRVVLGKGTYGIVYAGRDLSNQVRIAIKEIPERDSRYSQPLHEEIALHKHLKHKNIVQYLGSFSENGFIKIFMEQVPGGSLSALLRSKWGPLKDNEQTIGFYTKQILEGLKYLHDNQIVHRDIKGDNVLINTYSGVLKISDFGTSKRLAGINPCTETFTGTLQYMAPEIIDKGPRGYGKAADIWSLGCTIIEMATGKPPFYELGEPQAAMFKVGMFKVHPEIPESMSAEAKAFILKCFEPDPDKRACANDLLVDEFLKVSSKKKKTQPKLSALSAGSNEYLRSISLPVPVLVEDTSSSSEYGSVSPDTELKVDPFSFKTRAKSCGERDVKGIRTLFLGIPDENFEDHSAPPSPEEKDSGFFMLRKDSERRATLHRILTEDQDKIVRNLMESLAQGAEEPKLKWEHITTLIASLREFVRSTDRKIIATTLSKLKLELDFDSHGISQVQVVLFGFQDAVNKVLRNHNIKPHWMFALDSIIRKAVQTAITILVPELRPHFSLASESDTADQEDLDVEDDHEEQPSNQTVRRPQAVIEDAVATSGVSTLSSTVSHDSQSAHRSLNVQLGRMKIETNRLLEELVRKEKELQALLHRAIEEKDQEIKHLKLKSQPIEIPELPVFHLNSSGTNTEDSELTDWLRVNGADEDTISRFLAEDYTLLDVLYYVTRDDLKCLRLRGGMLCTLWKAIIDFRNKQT
Test: ASK1 Kinase Assay: The ASK1 enzymatic assay was run following Promega ASK1 Kinase Enzyme System (Cat #V3881). The kit provides the protocol, enzymes and all reagents necessary to run an assay. Firstly, the compounds, enzyme, substrate and ATP were diluted in provided assay buffer. The final concentration of the enzyme was 50 nM, substrate (Myelin basic protein) 1 μg/ml and ATP 10 μM. The compound and the enzyme were pre-incubated in a 384 well white solid bottom plate (Greiner, Cat#784075) for 10 minutes. After incubation, the substrate and ATP were added and incubated for further 60 minutes. After 60 minutes, ADP-Glo™ was added and plate was incubated for another 40 minutes. After 40 minutes, Kinase Detection Reagent was added and the plate was incubated for 45 minutes. After 45 minutes, plate was read on Perkin Elmer EnVision using luminescence read (0.5 seconds/well).

IC50: < 200 nM
SMILES: O=C(NC1CC1)c1ccc2c(c1)CN(c1cccc(-c3nncn3C3CC3)n1)C2=O
